Legend:
Format in all cases: in vivo
[1] = tested on: TRZAS (Triticum aestivum); experiment: Drought stress, spray application, greenhouse pot test; settings: average of one to three independent trials
Description: (§1) Seeds of monocotyledonous and dicotyledonous crop plants were laid out in sandy loam in wood-fiber pots, covered with soil or sand and cultivated in a greenhouse under good growth conditions. The test plants were treated at the early leaf stage (BBCH10-BBCH13). To assure uniform water supply before commencement of stress, the potted plants were supplied with water by dam irrigation prior to substance application. The inventive compounds, formulated in the form of wettable powders (WP), were sprayed onto the green parts of the plants as an aqueous suspension at an equivalent water application rate of 600 l/ha with addition of 0.2% wetting agent (e.g. agrotin). Substance application was followed immediately by stress treatment of the plants. For this purpose, the pots were transferred into plastic inserts in order to prevent them from subsequently drying out too quickly.
(§2) Drought stress was induced by gradual drying out under the following conditions:
(§3) “Day”: 14 hours with illumination at 26° C.
(§4) “Night”: 10 hours without illumination at 18° C.
(§5) The duration of the respective stress phases was guided mainly by the state of the untreated, stressed control plants and thus varied from crop to crop. It was ended (by re-irrigating and transfer to a greenhouse with good growth conditions) as soon as irreversible damage was observed on the untreated, stressed control plants. In the case of dicotyledonous crops, for example oilseed rape and soya, the duration of the drought stress phase varied between 3 and 6 days, in the case of monocotyledonous crops, for example wheat, barley or corn, between 6 and 11 days.
(§6) The end of the stress phase was followed by an approx. 5-7-day recovery phase, during which the plants were once again kept under good growth conditions in a greenhouse.
(§7) In order to rule out any influence of the effects observed by any fungicidal or insecticidal action of the test compounds, it was additionally ensured that the tests proceeded without fungal infection or insect infestation.
(§8) After the recovery phase had ended, the intensities of damage were analysed in visual comparison to untreated, unstressed controls for the same age. The intensity of damage was first recorded as a percentage (100%=plants have died, 0%=like control plants). These values were then used to calculate the efficacy of the test compounds (=percentage reduction in the intensity of damage as a result of substance application) by the following formula: […]
(§9) DVus: damage value of the untreated, stressed control
(§10) DVts: damage value of the plants treated with test compound
(§11) In each trial, 3 pots per crop and dosage were treated and evaluated; the resulting efficacies are thus averages. The values in tables A-1, A-2 and A-3 below are again averages from one to three independent trials.

BRSNS (Brassica napus) = experiment: as above; settings: evaluated after recovery phase
Description: as §1, §2, §3, §4, §5, §6, §7, §8, §9, §10, §11

ZEAMX (Zea mays) [2] = experiment: as above; settings: average of one to three independent trials
Description: as §1, §2, §3, §4, §5, §6, §7, §8, §9, §10, §11

ZEAMX (Zea mays) [3] = experiment: Cold stress, spray application, climate-controlled chamber test; settings: averages from one to three independent trials
Description: (§12) Seeds of monocotyledonous and dicotyledonous crop plants were laid out in sandy loam in plastic pots, covered with soil or sand and cultivated in a greenhouse under good growth conditions until the early leaf stage (BBCH12). The trial plants were then likewise treated at the early leaf stage. To assure uniform water supply before commencement of stress, the potted plants were supplied with water by dam irrigation prior to substance application. The inventive compounds, formulated in the form of wettable powders (WP), were sprayed onto the green parts of the plants as an aqueous suspension at an equivalent water application rate of 300 I/ha with addition of 0.2% wetting agent (e.g. agrotin). Substance application was followed immediately by stress treatment of the plants. For this purpose, the plants in question were transferred into a climate-controlled chamber and, after a wait period of 24 h, subjected to a cold stress profile with the following conditions: • 1) “Morning” warm-up phase from 2 to 16° C. for 5 hours • 2) “Day” at 16° C. for 6 hours • 3) “Evening” cool-down phase from 16 to 2° C. for 7 hours • 4) “Night” at 2° C. for 6 hours
(§13) Over the entire trial period, both the stressed trial plants and the control plants were supplied with the same amount of water which enabled good growth under control conditions. For this purpose, the unstressed control plants which served as a comparison were kept in a greenhouse under good growth conditions and observing the following conditions: • 1) “Day”: 14 hours with illumination at 22° C. • 2) “Night”: 10 hours without illumination at 12° C.
(§14) After a period of two weeks of the cold stress profile, the stress phase was ended, and there followed a recovery phase of about three weeks, during which the plants were once again kept in a greenhouse under good growth conditions. In order to rule out any influence of the effects observed by any fungicidal or insecticidal action of the test compounds, it was additionally ensured that the tests proceeded without fungal infection or insect infestation.
as §8, §9, §10
(§15) In each trial, 8 pots per crop and dosage were treated and evaluated; the resulting efficacies are therefore averages. The values in tables B-1 and B-2 below are again averages from one to three independent trials.

[4] = tested on: TRZAS (Triticum aestivum); experiment: as above; settings: averages from one to three independent trials
Description: as §12, §13, §14, §8, §9, §10, §15

Row | SMILES | EF (TRZAS): efficacy, percentage reduction in the intensity of damage ([1]; dosage 25 g/ha) | EF (BRSNS): efficacy = percentage reduction in the intensity of damage (BRSNS (Brassica napus); dosage 2.5 g/ha) | EF (ZEAMX): efficacy, percentage reduction in the intensity of damage (ZEAMX (Zea mays) [2]; dosage 25 g/ha) | further results
1 | COC(=O)c1c(O)ccc2c1CC(c1cccc(OC)c1)O2 (centres unmarked) [I.1-3] |  |  |  | EF (TRZAS): efficacy, percentage reduction in the intensity of damage ([1]; dosage 250 g/ha): >5%
2 | COC(=O)c1c(O)ccc2c1CC(c1ccc(OC)cc1)O2 (centres unmarked) [I.1-4, Methyl 2-(4-methoxyphenyl)-5-hydroxy-2,3-dihydro-1-benzofuran-4-carboxylate] |  |  |  | EF (BRSNS): efficacy = percentage reduction in the intensity of damage (BRSNS (Brassica napus); dosage 100 g/ha): >5%; EF (ZEAMX): efficacy, percentage reduction in the intensity of damage (ZEAMX (Zea mays) [2]; dosage 100 g/ha): >5%; EF (ZEAMX): efficacy, percentage reduction in the intensity of damage (ZEAMX (Zea mays) [3]; dosage 25 g/ha): >5%
3 | COC(=O)c1c(O)ccc2c1CC(c1ccc(OC)c(OC)c1)O2 (centres unmarked) [I.1-12] | >5% |  |  | EF (BRSNS): efficacy = percentage reduction in the intensity of damage (BRSNS (Brassica napus); dosage 25 g/ha): >5%
4 | COC(=O)c1c(O)ccc2c1CC(C)(c1ccccc1)O2 (centres unmarked) [I.1-16] |  | >5% |  | 
5 | COC(=O)c1c(O)ccc2c1C(C)C(c1ccc(OC)cc1)O2 (centres unmarked) [I.1-20] |  | >5% |  | 
6 | COC(=O)c1c(O)ccc2c1C(C)C(c1ccc(OC)c(OC)c1)O2 (centres unmarked) [I.1-21, Methyl 2-(3,4-dimethoxyphenyl)-5-hydroxy-3-methyl-2,3-dihydro-1-benzofuran-4-carboxylate] |  |  |  | EF (BRSNS): efficacy = percentage reduction in the intensity of damage (BRSNS (Brassica napus); dosage 25 g/ha): >5%
7 | COC(=O)c1c(O)ccc2c1CC(c1ccc(OC(C)(C)C)cc1)O2 (centres unmarked) [I.1-32] | >5% |  | >5% | EF (BRSNS): efficacy = percentage reduction in the intensity of damage (BRSNS (Brassica napus); dosage 25 g/ha): >5%
8 | COC(=O)c1c(O)ccc2c1CC(c1ccc(OCc3ccccc3)c(OC)c1)O2 (centres unmarked) [I.1-35] | >5% |  | >5% | EF (BRSNS): efficacy = percentage reduction in the intensity of damage (BRSNS (Brassica napus); dosage 25 g/ha): >5%; EF (TRZAS): efficacy, percentage reduction in the intensity of damage ([4]; dosage 25 g/ha): >5%; EF (ZEAMX): efficacy, percentage reduction in the intensity of damage (ZEAMX (Zea mays) [3]; dosage 25 g/ha): >5%
9 | COC(=O)c1c(O)ccc2c1CC(c1ccc(OC(C)=O)cc1)O2 (centres unmarked) [I.1-40] | >5% |  | >5% | EF (TRZAS): efficacy, percentage reduction in the intensity of damage ([4]; dosage 25 g/ha): >5%; EF (ZEAMX): efficacy, percentage reduction in the intensity of damage (ZEAMX (Zea mays) [3]; dosage 25 g/ha): >5%
10 | COC(=O)c1c(O)ccc2c1CC(c1ccc(Oc3ccccc3)cc1)O2 (centres unmarked) [I.1-41] |  | >5% | >5% | EF (TRZAS): efficacy, percentage reduction in the intensity of damage ([4]; dosage 6.25 g/ha): >5%; EF (ZEAMX): efficacy, percentage reduction in the intensity of damage (ZEAMX (Zea mays) [3]; dosage 6.25 g/ha): >5%
11 | COC(=O)c1c(O)ccc2c1CC(C)(c1ccc(C)cc1)O2 (centres unmarked) [I.1-44] |  | >5% | >5% | 
12 | COC(=O)c1c(O)ccc2c1CC(c1ccc3ccccc3c1)O2 (centres unmarked) [I.1-48] |  | >5% |  | EF (ZEAMX): efficacy, percentage reduction in the intensity of damage (ZEAMX (Zea mays) [2]; dosage 250 g/ha): >5%
13 | COC(=O)c1c(O)ccc2c1CC(C)(c1ccc3ccccc3c1)O2 (centres unmarked) [I.1-49] |  | >5% |  | 
14 | COc1ccc(C2Cc3c(ccc(O)c3C(=O)O)O2)cc1 (centres unmarked) [I.2-4] |  |  |  | EF (BRSNS): efficacy = percentage reduction in the intensity of damage (BRSNS (Brassica napus); dosage 250 g/ha): >5%
15 | CCOC(=O)c1c(O)ccc2c1CC(c1ccc(OC)cc1)O2 (centres unmarked) [I.4-4] | >5% | >5% | >5% | EF (TRZAS): efficacy, percentage reduction in the intensity of damage ([4]; dosage 25 g/ha): >5%; EF (ZEAMX): efficacy, percentage reduction in the intensity of damage (ZEAMX (Zea mays) [3]; dosage 6.25 g/ha): >5%
16 | CCOC(=O)c1c(O)ccc2c1C(C)C(c1ccc(OC)c(OC)c1)O2 (centres unmarked) [I.4-21] |  | >5% |  | 
17 | COC(=O)c1c(OC(C)=O)ccc2c1CC(c1ccc(OC)cc1)O2 (centres unmarked) [I.5-4] |  | >5% |  | 
18 | COC(=O)c1c(OC(=O)C2CCC2)ccc2c1CC(c1ccc(OC)cc1)O2 (centres unmarked) [I.6-4, Methyl 5-[(cyclobutylcarbonyl)oxy]-2-(4-methoxyphenyl)-2,3-dihydro-1-benzofuran-4-carboxylate] | >5% |  |  | EF (BRSNS): efficacy = percentage reduction in the intensity of damage (BRSNS (Brassica napus); dosage 25 g/ha): >5%
19 | COC(=O)c1c(OS(=O)(=O)C(F)(F)F)ccc2c1CC(c1ccc(OC)cc1)O2 (centres unmarked) [I.16-4] |  |  | >5% | 

Reference: US20150322094A1, “USE OF SUBSTITUTED 2,3-DIHYDRO-1-BENZOFURAN-4-CARBOXYLIC ACIDS OR SALTS THEREOF AS ACTIVE SUBSTANCES AGAINST ABIOTIC PLANT STRESS” (Bayer CropScience AG, priority 2012, published 2015)
